Experimental data reported in the NIST ThermoML archive (doi:10.1016/j.jct.2019.03.023).
Where “and” joins values, the source holds several entries; their conditions need not be identical. Identical values can stand only once.

Assay: molar heat capacity at constant volume
Conditions: Vacuum adiabatic calorimetry

CC(C)O [propan-2-ol]
Fluid (supercritical or subcritical phases)
Conditions	molar heat capacity at constant volume
507.91 K, Mass density=343.1 kg/m3	340.98 J/K/mol
507.95 K, Mass density=343.1 kg/m3	342.54 J/K/mol and 212.44 J/K/mol
508.01 K, Mass density=234.3 kg/m3	436.29 J/K/mol
508.01 K, Mass density=255.8 kg/m3	424.87 J/K/mol
508.01 K, Mass density=274 kg/m3	393.86 J/K/mol
508.01 K, Mass density=293.3 kg/m3	380.52 J/K/mol
508.01 K, Mass density=324.5 kg/m3	363.27 J/K/mol
508.01 K, Mass density=343.1 kg/m3	205.52 J/K/mol
508.04 K, Mass density=329.2 kg/m3	358.17 J/K/mol
508.1 K, Mass density=234.3 kg/m3	442.3 J/K/mol
508.1 K, Mass density=255.8 kg/m3	425.65 J/K/mol
508.1 K, Mass density=266.3 kg/m3	412.31 J/K/mol
508.1 K, Mass density=274 kg/m3	396.93 J/K/mol
508.1 K, Mass density=281.9 kg/m3	391.7 J/K/mol
508.1 K, Mass density=293.3 kg/m3	381.6 J/K/mol
508.1 K, Mass density=324.5 kg/m3	367.06 J/K/mol
508.1 K, Mass density=343.1 kg/m3	191.64 J/K/mol
508.16 K, Mass density=329.2 kg/m3	363.76 J/K/mol and 218.14 J/K/mol
508.18 K, Mass density=329.2 kg/m3	208.53 J/K/mol
508.19 K, Mass density=234.3 kg/m3	447.71 J/K/mol
508.19 K, Mass density=255.8 kg/m3	429.38 J/K/mol
508.19 K, Mass density=266.3 kg/m3	417.66 J/K/mol
508.19 K, Mass density=274 kg/m3	404.38 J/K/mol
508.19 K, Mass density=281.9 kg/m3	398.49 J/K/mol
508.19 K, Mass density=288.99 kg/m3	390.74 J/K/mol
508.19 K, Mass density=293.3 kg/m3	383.29 J/K/mol
508.19 K, Mass density=324.5 kg/m3	370.25 J/K/mol
508.19 K, Mass density=343.1 kg/m3	187.98 J/K/mol
508.28 K, Mass density=234.3 kg/m3	453.36 J/K/mol
508.28 K, Mass density=255.8 kg/m3	438.99 J/K/mol
508.28 K, Mass density=266.3 kg/m3	426.19 J/K/mol
508.28 K, Mass density=274 kg/m3	414.84 J/K/mol
508.28 K, Mass density=281.9 kg/m3	409.07 J/K/mol
508.28 K, Mass density=288.99 kg/m3	395.61 J/K/mol
508.28 K, Mass density=293.3 kg/m3	391.22 J/K/mol
508.28 K, Mass density=324.5 kg/m3	371.75 J/K/mol and 221.39 J/K/mol
508.28 K, Mass density=329.2 kg/m3	195.91 J/K/mol
508.29 K, Mass density=343.1 kg/m3	181.07 J/K/mol
508.34 K, Mass density=324.5 kg/m3	214 J/K/mol
508.37 K, Mass density=329.2 kg/m3	192.6 J/K/mol
508.38 K, Mass density=234.3 kg/m3	464.9 J/K/mol
508.38 K, Mass density=255.8 kg/m3	446.27 J/K/mol
508.38 K, Mass density=266.3 kg/m3	435.27 J/K/mol

Liquid
Conditions	molar heat capacity at constant volume [J/K/mol]
507.95 K	212.44
508.16 K	218.14
508.28 K	221.39
